# Measurements from patent US10550165B2, “Peptide for inducing regeneration of tissue and use thereof” (STEMRIM INC., priority 2011, dated 2020).
# “Also recorded” adds a separate entry of the source.
# B1: 85-169: peptide of positions 85 to 169 of mouse HMGB1, produced using HEK293 (protein, UniProt P63158 85-169, looked up, fragment)
# chain: TKKKFKDPNAPKRPPSAFFLFCSEYRPKIKGEHPGLSIGDVAKKLGEMWNNTAADDKQPYEKKAAKLKEKYEKDIAAYRAKGKPD
# B2: 1-84: peptide of positions 1 to 84 of mouse HMGB1, produced using HEK293 (protein, UniProt P63158 1-84, looked up, fragment)
# chain: MGKGDPKKPRGKMSSYAFFVQTCREEHKKKHPDASVNFSEFSKKCSERWKTMSAKEKGKFEDMAKADKARYEREMKTYIPPKGE
# B3: 1-62: peptide comprising the amino acid sequence of positions 1 to 62, produced using HEK293 (protein, UniProt P63158 1-62, looked up, fragment)
# chain: MGKGDPKKPRGKMSSYAFFVQTCREEHKKKHPDASVNFSEFSKKCSERWKTMSAKEKGKFED
# B4: 45-215: peptide of positions 45 to 215 of HMGB1, produced using HEK293 (protein, UniProt P09429 45-215, looked up, fragment)
# chain: CSERWKTMSAKEKGKFEDMAKADKARYEREMKTYIPPKGETKKKFKDPNAPKRPPSAFFLFCSEYRPKIKGEHPGLSIGDVAKKLGEMWNNTAADDKQPYEKKAAKLKEKYEKDIAAYRAKGKPDAAKKGVVKAEKSKKKKEEEEDEEDEEDEEEEEDEEDEDEEEDDDDE
# B5: 63-215: peptide of positions 63 to 215 of HMGB1, produced using HEK293 (protein, UniProt P63158 63-215, looked up, fragment)
# chain: MAKADKARYEREMKTYIPPKGETKKKFKDPNAPKRPPSAFFLFCSEYRPKIKGEHPGLSIGDVAKKLGEMWNNTAADDKQPYEKKAAKLKEKYEKDIAAYRAKGKPDAAKKGVVKAEKSKKKKEEEDDEEDEEDEEEEEEEEDEDEEEDDDDE
# B6: 2-215: human HMGB1 positions 2 to 215 produced in E. coli, nearly the full length, positive control (protein, UniProt P09429 2-215, looked up, fragment)
# chain: GKGDPKKPRGKMSSYAFFVQTCREEHKKKHPDASVNFSEFSKKCSERWKTMSAKEKGKFEDMAKADKARYEREMKTYIPPKGETKKKFKDPNAPKRPPSAFFLFCSEYRPKIKGEHPGLSIGDVAKKLGEMWNNTAADDKQPYEKKAAKLKEKYEKDIAAYRAKGKPDAAKKGVVKAEKSKKKKEEEEDEEDEEDEEEEEDEEDEDEEEDDDDE
# B7: 2-62: human HMGB1 fragment, positions 2 to 62, produced in E. coli (protein, UniProt P09429 2-62, looked up, fragment)
# chain: GKGDPKKPRGKMSSYAFFVQTCREEHKKKHPDASVNFSEFSKKCSERWKTMSAKEKGKFED
# Tested on: mouse bone marrow mesenchymal stem cell line (MSC-1 cells), PDGFRα-positive
# Assay: Migration assay (Boyden / 48-well chemotaxis chamber) on bone marrow mesenchymal stem cell line MSC-1
# Format: cell-based
# Description: Cells of a mouse bone marrow mesenchymal stem cell line (MSC-1 cells, established by Tamai et al. of Osaka University (PDGFRα-positive cells in bone marrow are mobilized by high mobility group box 1 (HMGB1) to regenerate injured epithelia. (Tamai et al., Proc Natl Acad Sci USA. Apr. 4, 2011))) were detached from dishes using trypsin, and collected by centrifugation at 1200 rpm and 4° C. for 10 minutes. The resulting pellet was loosened and suspended at a cell concentration of 2.0×10^6 to 3.0×10^6 cells/ml by adding Dulbecco's Modified Eagle Medium (D-MEM) containing 10% fetal bovine serum (FBS). The recombinant protein and peptides produced in HEK293 were diluted with D-MEM containing 10% FBS. The negative control used was phosphate buffered saline (PBS). An acrylic Boyden chamber was used; cells of the mouse bone marrow mesenchymal stem cell line prepared at a cell concentration of 3×10^6 cells/ml were placed in its upper layer, while a diluted protein or peptide is added to the bottom layer. More specifically, a 28 μl aliquot of a protein or peptide solution was added to each well of the bottom plate of a 48-well chemotaxis chamber (NEURO PROBE 48WELL CHEMOTAXIS CHAMBER), and a polycarbonate membrane with 8 μm pores (Neuro Probe, Inc, Cat: 866-417-0014) was placed on the bottom plate. Then, an upper plate was placed on the membrane and screwed tightly. 50 μl of cells of the mouse bone marrow mesenchymal stem cell line after concentration adjustment were added to the upper plate wells. The chamber was placed in an incubator under 5% CO2 at 37° C. After four hours, the membrane was removed from the chamber and stained with Diff-Quik (Sysmex, Cat: 16920) to detect cells that migrated through membrane pores to the lower compartment.
# The peptides listed below were custom synthesized using the solid phase method by Medical & Biological Laboratories (MBL). The peptides were synthesized based on the mouse HMGB1 sequence (SEQ ID NO: 3). Synthetic peptides described in subsequent Examples were also prepared based on the mouse HMGB1 sequence. • A synthetic peptide consisting of the amino acid sequence from positions 1 to 10 of HMGB1 (1-10); • a synthetic peptide consisting of the amino acid sequence from positions 1 to 34 of HMGB1 (1-34); • a synthetic peptide consisting of the amino acid sequence from positions 37 to 62 of HMGB1 (37-62); • a synthetic peptide consisting of the amino acid sequence from positions 27 to 62 of HMGB1 (27-62); • a synthetic peptide consisting of the amino acid sequence from positions 56 to 72 of HMGB1 (56-72); • a synthetic peptide consisting of the amino acid sequence from positions 11 to 20 of HMGB1 (11-20); • a synthetic peptide consisting of the amino acid sequence from positions 11 to 25 of HMGB1 (11-25); • a synthetic peptide consisting of the amino acid sequence from positions 11 to 30 of HMGB1 (11-30); • a synthetic peptide consisting of the amino acid sequence from positions 11 to 34 of HMGB1 (11-34); • a synthetic peptide consisting of the amino acid sequence from positions 11 to 44 of HMGB1 (11-44); • a synthetic peptide consisting of the amino acid sequence from positions 17 to 44 of HMGB1 (17-44); • a synthetic peptide consisting of the amino acid sequence from positions 1 to 25 of HMGB1 (1-25); and the whole mouse HMGB1 produced in HEK293 (1-215(HEK)) as a positive control were adjusted to 100 μg/ml and placed in the lower layer of a chemotaxis chamber to assess the migration-promoting activity on bone marrow mesenchymal stem cell line (MSC-1). Results
# As positive controls, centrifuged supernatant of the skin of a one-day-old mouse (one individual) incubated in PBS at 4° C. for 12 hours, and the whole mouse HMGB1 (HMGB1(HEK_1-215)) produced in HEK293 were used. […]
# [1] = synthetic peptides, 5 μM, FIGS. 8A and 8B
# [2] = synthetic peptides, 10 μM and 5 μM, FIG. 9
# [3] = 2 μM, area of migrated cells by image analysis, FIG. 10
# [4] = protein and peptides produced using HEK293 (mouse HMGB1), 50 μg/ml, 4 h, FIG. 2A
# [5] = peptides produced using HEK293, 5, 15 and 25 μg/ml, FIG. 3
# [6] = human HMGB1 fragments produced in E. coli, 2 μM, FIG. 18B
molecule,measurement,setting,value
"(13-25): synthetic peptide consisting of the amino acid sequence from positions 13 to 25 of HMGB1 (MSSYAFFVQTCRE; UniProt P09429 13-25, looked up, fragment)",migration-promoting activity,[1],weak activity
"(13-30): synthetic peptide consisting of the amino acid sequence from positions 13 to 30 of HMGB1 (MSSYAFFVQTCREEHKKK; UniProt P09429 13-30, looked up, fragment)",migration-promoting activity,[1],strong migration-promoting activity
"(14-25): synthetic peptide consisting of the amino acid sequence from positions 14 to 25 of HMGB1 (SSYAFFVQTCRE; UniProt P09429 14-25, looked up, fragment)",migration-promoting activity,[1],weak activity
"(14-30): synthetic peptide consisting of the amino acid sequence from positions 14 to 30 of HMGB1 (SSYAFFVQTCREEHKKK; UniProt P09429 14-30, looked up, fragment)",migration-promoting activity,[1],strong migration-promoting activity
"(15-25): synthetic peptide consisting of the amino acid sequence from positions 15 to 25 of HMGB1 (SYAFFVQTCRE; UniProt P09429 15-25, looked up, fragment)",migration-promoting activity,[1],weak activity
"(15-30): synthetic peptide consisting of the amino acid sequence from positions 15 to 30 of HMGB1 (SYAFFVQTCREEHKKK; UniProt P09429 15-30, looked up, fragment)",migration-promoting activity,[1],weak activity
"(16-25): synthetic peptide consisting of the amino acid sequence from positions 16 to 25 of HMGB1 (YAFFVQTCRE; UniProt P09429 16-25, looked up, fragment)",migration-promoting activity,[1],weak activity
"(16-30): synthetic peptide consisting of the amino acid sequence from positions 16 to 30 of HMGB1 (YAFFVQTCREEHKKK; UniProt P09429 16-30, looked up, fragment)",migration-promoting activity,[1],weak activity
"(17-30): synthetic peptide consisting of the amino acid sequence from positions 17 to 30 of HMGB1 (AFFVQTCREEHKKK; UniProt P09429 17-30, looked up, fragment)",migration-promoting activity,[1],weak activity
"(45-74): synthetic peptide consisting of the amino acids of positions 45 to 74 (CSERWKTMSAKEKGKFEDMAKADKARYERE; UniProt P09429 45-74, looked up, fragment)",migration-promoting activity,[2],exhibited migration-promoting activity which was however weaker as compared to synthetic peptides (1-44) and (1-34)
"(55-84): synthetic peptide consisting of the amino acids of positions 55 to 84 (KEKGKFEDMAKADKARYEREMKTYIPPKGE; UniProt P09429 55-84, looked up, fragment)",migration-promoting activity,[2],exhibited migration-promoting activity which was however weaker as compared to synthetic peptides (1-44) and (1-34)
"peptide (1-44) produced in E. coli: amino acids of positions 1 to 44 of mouse HMGB1 produced using E. coli, tag removed by HRV3C (MGKGDPKKPRGKMSSYAFFVQTCREEHKKKHPDASVNFSEFSKK; UniProt P63158 1-44, looked up, fragment)","migration-promoting activity relative to the full-length HMGB1, compared per equal mass",[3],about 8 times
same,"migration-promoting activity relative to the full-length HMGB1, compared per equal mole",[3],about 1.6 times
B1,migration-promoting activity,[4],did not show detectable migration-promoting activity
B2,migration-promoting activity,[4],showed migration-promoting activity
B3,activity of promoting the migration of MSC-1,"peptides produced using HEK293, concentration not stated",showed the activity of promoting the migration of bone marrow mesenchymal stem line MSC-1
B4,migration-promoting activity,[5],exhibited migration-promoting activity in a concentration-dependent manner; also recorded: stronger as compared to 63-215
B5,migration-promoting activity,[5],exhibited migration-promoting activity in a concentration-dependent manner
B6,migration-promoting activity,[6],showed migration-promoting activity on bone marrow mesenchymal stem cells
B7,migration-promoting activity,[6],showed migration-promoting activity on bone marrow mesenchymal stem cells
